# Test results as given in patent US8338488B2, “Use of at least one oxime derivative of 3,5-seco-4-nor-cholestane as antioxidants” (Trophos, priority 2007, dated 2012).
# Columns and labels:
# [1] = Chemical stability of the powder under ICH storage conditions, total impurities by GC-FID; type: physicochemical; conditions: for total impurities: powder
# Protocol: These analyses were carried out using a gas chromatography method coupled with an FID detector. This method makes it possible to quantify the impurities at a level of 0.2%.
# [2] = test system: perfused isolated rat heart; assay: Perfused isolated rat heart, ischaemia/reperfusion, DMPO spin trapping in the coronary effluents (EPR)
# Protocol: The animals used are male rats of the Sprague Dawley strain (Harlan et CERJ, France) of 250-300 g) fed ad libitum. The rats are anaesthetized by an intraperitoneal injection of sodium pentobarbital (50 mg/kg of body weight). The thoracic cavity is then opened and the heart rapidly removed and immersed in perfusion liquid (Krebs-Henseleit) at 4° C. in order to stop any contraction.
# The heart with fatty tissues removed is then perfused according to Langendorff's technique by aortic retrograde route at a constant pressure of 90 cm H2O. A small incision in the pulmonary artery allows the flow and measurement of the coronary effluent over time (coronary flow rate). The time required for completion of the entire operation is two to three minutes. After ablation of the left auricle, a latex cuff is inserted into the left ventricle and filled with a volume of distilled water (50-60 μl) which remains constant during the experimental protocol, connected to a pressure sensor (GOULD) and to a differentiating recorder allowing the measurement of the following haemodynamic parameters: • intraventricular diastolic pressure (Pdia) • developed pressure of left ventricle Pdev=Psystolic−Pdia • dP/dt (first derivative of the developed pressure, cardiac contractility index in this model) • cardiac frequency (F) • cardiac work calculated according to the relationship W=Pdev×F […]
# [3] = Oxidation of cumene to cumene hydroperoxide by oxygen with AIBN, assayed by HPLC-UV; conditions: for % of reduction of the oxidation of the cumene / Area of the signal, in relative units, of the cumene hydroperoxide: 2 equivalents of AIBN, 2 hours 45° C.
# Protocol: The oxidation of cumene at atmospheric pressure and at 37° C. by oxygen is known and described in the presence of a radical initiator such as AIBN (azobisisobutyronitrile) (Blanchard H. S., J. Am. Chem. Soc. 1959, 81, 4548). A recent publication used this reaction to classify the antioxidant potential of known products such as vitamin E (which is the universal reference), BHT (butylated hydroxytoluene) and other products.
# In the following experiment we reproduced the same experimental conditions as those described in the publication of Becker D. A. et al. (J. Am. Chem. Soc. 2002, 124, 4678-4684). A high pressure liquid chromatography method coupled with a UV detector was used to detect cumene hydroperoxide. The column used is an Agilent Zorbax Eclipse XDB RPC8 column (150×4.6 mm) coupled with a UV detector fixed at 254 nm. The gradient used is detailed in the following table: […]
# 2 ml of cumene (AcrosOrganic) and 0.5 ml of methanol are mixed, azobisisobutyronitrile (AcrosOrganic) is added (2 equivalents) and the solution taken to 45° C. in order to accelerate the chemical reaction. The cumene hydroperoxide appears over time and is assayed by the HPLC method.
# The technique used made it possible to compare the appearance of the cumene hydroperoxide in the presence of an antioxidant agent such as the claimed products and vitamin E used as reference product.
# [4] = Pharmacokinetics in the rat, oral and intravenous routes; type: in vivo; conditions: 500 mg/kg by oral route, suspension in corn oil, i.v. reference in cremophor/ethanol/water
# Protocol: A study of pharmacokinetics with administration by oral route in suspension in corn oil and by intra-venous route in solution in cremophor/ethanol/water (5%, 10%, 85%) made it possible to calculate the bioavailability of the product. The assay of the product in the plasma is carried out by a high pressure liquid chromatography method coupled with mass spectrometry.
# [5] = Competition with DMPO for the tBuO radical, DMPO-tBuO adduct signal measured by EPR
# Protocol: The nitrones trap the radical species (R.; RO.) and allow their observation by electron paramagnetic resonance (EPR) (Degray J. et al. Electron Spin Resonance, Ed N. M. Atherton, Atheaeum Press Ltd; Cambridge, 1994, 14, 246).
# The incubation of the DMPO (Interchim-U2469) (20 mM) in deoxygenated toluene (Sigma-Aldrich) in the presence of the tBuO (tert-butoxyl) radical, generated by photolysis, makes it possible to identify and quantify by EPR the signal of the DMPO-tBuO radical. This signal is inhibited in the presence of an equimolar quantity of 3,5-seco-4-nor-cholestane oxime.
# The EPR signal allows integration in the form of an area of the signal of the DMPO-tBuO adduct and therefore a relative quantification of this radical entity.
# All the experiments were carried out on an X-band Bruker ESP300 device (9.5 GHz) at ambient temperature. The solutions were studied in a quartz EPR tube.
molecule,measurement,setting,value
"CC(C)CCC[C@@H](C)[C@H]1CC[C@H]2[C@@H]3CC/C(=N\O)[C@](C)(CCCO)[C@H]3CC[C@]12C [3,5-seco-4-nor-cholestan-5-one oxime-3-ol]",change in the quality of the product,[1]; after 1 year's storage at 25° C.,No change in the quality
same,change in the quality of the product,[1]; after 6 months of storage at 40° C.,No change in the quality
same,total impurities,"[1]; 25° C. under 60% relative humidity, T0",0.2%
same,total impurities,"[1]; 25° C. under 60% relative humidity, T12 months",0.2%
same,total impurities,"[1]; 40° C. under 75% relative humidity, T0",0.2%
same,total impurities,"[1]; 40° C. under 75% relative humidity, T6 months",0.2%
same,extracellular production of free radical scavenging adducts (DMPO-OH) in the coronary effluents,"[2]; 1 μM in Krebs buffer, DMPO 50 mM, reperfusion after ischaemia, p<0.05",large and significant reduction
same,"protection with respect to the vehicle (DMPO-OH adducts, FIG. 1)","[2]; 1 μM, two groups of 6 hearts",significant protection
same,reduction of the oxidation of the cumene by oxygen (conclusion),[3],approximately 40%
same,% of reduction of the oxidation of the cumene,[3]; 50 μM,25%
same,"Area of the signal, in relative units, of the cumene hydroperoxide",[3]; 50 μM,300 relative units
same,% of reduction of the oxidation of the cumene,[3]; 200 μM,50%
same,"Area of the signal, in relative units, of the cumene hydroperoxide",[3]; 200 μM,200 relative units
same,activity compared with vitamin E,[3]; same concentrations,same order of magnitude
same,bioavailability,[4],6%
same,% inhibition of the DMPO-tBuO radical,"[5]; compound 20 mM + DMPO 20 mM, 200 s",50%
same,% inhibition of the DMPO-tBuO radical,"[5]; compound 20 mM + DMPO 20 mM, 400 s",66%
same,Area of the DMPO-tBuO signal at 200 s in relative units,"[5]; compound 20 mM + DMPO 20 mM, (t-BuO)2 20 mM, photolysis at 350 nm, 200 s",3 relative units
same,Area of the DMPO-tBuO signal at 400 s in relative units,"[5]; compound 20 mM + DMPO 20 mM, (t-BuO)2 20 mM, photolysis at 350 nm, 400 s",4 relative units
same,effect on the DMPO-tBuO EPR signal,"[5]; equimolar quantity to DMPO (20 mM), deoxygenated toluene",inhibited
same,inhibition of the level of the DMPO-tBuO signal radical (conclusion),[5]; equimolar with DMPO,~60%
same,kinetics of inhibition of the DMPO-tBuO signal (time),[5]; rapid kinetics,less than 10 minutes
vitamin E [reference compound],% of reduction of the oxidation of the cumene,[3]; 100 μM,39%
same,"Area of the signal, in relative units, of the cumene hydroperoxide",[3]; 100 μM,245 relative units
